# In US6872721B2, “Derivatives of 2,3,6,7,12,12a-hexahydropyrazino-[1′,2′:1,6]pyrido[3,4b]-indole-1,4-dione” (Lilly ICOS LLC, priority 2000, dated 2005):
# Legend:
# [1] = target: human recombinant-PDE5 (Homo sapiens, UniProt O76074); experiment: Inhibitory effect on cGMP-PDE (PDE5 IC50, one-step assay); format: biochemical; details: in vitro, 0.15 μM 8-[H3]-cGMP, 30 min incubation
# Method: The compounds of structural formula (I) were tested for an ability to inhibit PDE5. The ability of a compound to inhibit PDE5 activity is related to the IC50 value for the compound, i.e., the concentration of inhibitor required for 50% inhibition of enzyme activity. The IC50 value for compounds of structural formula (I) were determined using recombinant human PDE5.
# cGMP-PDE activity of compounds of the present invention was measured using a one-step assay adapted from Wells et al., Biochim. Biophys. Acta, 384, 430 (1975). The reaction medium contained 50 mM Tris-HCl, pH 7.5, 5 mM magnesium acetate, 250 μg/ml 5′-Nucleotidase, 1 mM EGTA, and 0.15 μM 8-[H^3]-cGMP. Unless otherwise indicated, the enzyme used was a human recombinant-PDE5 (ICOS Corp., Bothell, Wash.).
# Compounds of the invention were dissolved in DMSO finally present at 2% in the assay.
Compound,IC50 [1] [nM],melting point [°C]
"CN1CC(=O)N2[C@H](c3ccc4c(c3)OCO4)c3[nH]c4cc(C(=O)O)ccc4c3C[C@H]2C1=O (racemic) [Example 6, (+−,trans)-6-Benzo[1,3]dioxol-5-yl-2-methyl-1,4-dioxo-1,2,3,4,6,7,12,12a-octahydropyrazino[1′,2′:1,6]pyrido[3,4-b]indole-9-carobxylic acid]",151,246 to 252
"COc1ccc2[nH]c3c(c2c1)C[C@@H]1C(=O)N(C)CC(=O)N1[C@@H]3c1ccc2c(c1)OCO2 (racemic) [Example 2, (trans)-6-(1,3-Benzodioxol-5-yl)-10-methoxy-2-methyl-2,3,6,7,12,12a-hexahydropyrazino[1′,2′:1,6]pyrido[3,4-b]indole-1,4-dione]",402,259 to 261
"COC(=O)c1ccc2c3c([nH]c2c1)[C@@H](c1ccc2c(c1)OCO2)N1C(=O)CN(C)C(=O)[C@H]1C3 (racemic) [Example 5, (+−, cis)-6-Benzo[1,3]dioxol-5-yl-2-methyl-1,4-dioxo-1,2,3,6,7,12,12a-octahydropyrazino[1′,2′:1,6]pyrido[3,4-b]indole-9-carboxylic acid methyl ester]",288,294 to 295
"CN1CC(=O)N2[C@H](c3ccc4c(c3)OCO4)c3[nH]c4ccc(O)cc4c3C[C@@H]2C1=O (racemic) [Example 1, (+/−, cis)-6-Benzo[1,3]dioxol-5-yl-10-hydroxy-2-methyl-2,3,6,7,12,12a-hexahydropyrazino[1′,2′:1,6)pyrido[3,4-b]indole-1,4-dione]",48.1,322 to 328
"COc1ccc2c3c([nH]c2c1)[C@@H](c1ccc2c(c1)OCO2)N1C(=O)CN(C)C(=O)[C@H]1C3 [Example 3, (6R,12aR)-6-Benzo[1,3]dioxol-5-yl-9-methoxy-2-methyl-2,3,6,7,12,12a-hexahydropyrazino-[1′,2′:1,6]pyrido[3,4-b]indole-1,4-dione]",1.2,288 to 293
"CN1CC(=O)N2[C@H](c3ccc4c(c3)OCO4)c3[nH]c4cc(C#N)ccc4c3C[C@@H]2C1=O (racemic) [Example 7, (+−, cis)-6-Benzo[1,3]dioxol-5-yl-2-methyl-1,4-dioxo-1,2,3,4,6,7,12,12a-octahydropyrazino[1′,2′:1,6]pyrido[3,4-b]indole-9-carbonitrile]",7,329 to 331
"CN1CC(=O)N2[C@H](c3ccc4c(c3)OCO4)c3[nH]c4c(OCc5ccccc5)cccc4c3C[C@@H]2C1=O (racemic) [Example 8, (+−, cis)-6-Benzo[1,3]dioxol-5-yl-8-benzyloxy-2-methyl-2,3,6,7,12,12a-hexahydropyrazino[1′2′:1,6]pyrido[3,4-b]indole-1,4-dione]",37,150 to 161
"CN1CC(=O)N2[C@H](c3ccc4c(c3)OCO4)c3[nH]c4cc(-c5ccccc5)ccc4c3C[C@@H]2C1=O (racemic) [Example 4, (+−, cis)-6-Benzo[1,3]dioxol-5-yl-2-methyl-9-phenyl-2,3,6,7,12,12a-hexahydropyrazino[1′,2′:1,6]pyrido[3,4-b]indole-1,4-dione]",6,198 to 208
